The source of these data is PubChem BioAssay (NCI).

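Protocol summary: plate cells (96-well), add compound at 5 concentrations, incubate 48 h, interpolate endpoints linearly. At the TGI there is no net growth.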 Where only a bound is given, the exact number is not on record here.

Among the test systems are CAKI-1 renal; DLD-1 colon; DMS 114 small cell lung; DMS 273 small cell lung; HCT-15 colon; HOP-18 NSCLC; KM20L2 colon; LXFL 529 NSCLC; M14 melanoma; M19-MEL melanoma; NCI-H522 lung; RXF-631 renal; SK-MEL-5 melanoma; SNB-78 CNS; XF 498 CNS.
Test in all cases: inhibition of tumour cell growth, NCI panel, 48 h

In the case of `COc1cccc2nc3cc(C)c(C)cc3nc12`, the TGI in the assay on CAKI-1 renal, with DLD-1 colon, with DMS 114 small cell lung, with DMS 273 small cell lung, in the assay on HCT-15 colon and with HOP-18 NSCLC was above 100 µM in each case. Moreover, the TGI with KM20L2 colon, in the assay with LXFL 529 NSCLC, with M14 melanoma, in the assay with M19-MEL melanoma, with NCI-H522 lung and with RXF-631 renal was above 100 µM each time. Besides, the TGI in the assay on SK-MEL-5 melanoma, with SNB-78 CNS and with XF 498 CNS was above 100 µM in each case.

Consider `CC(C)C12C=CC(C)(CC1)n1c(=O)c3cc4ccccc4cc3c(=O)n12` (configuration not stated), for which the TGI with CAKI-1 renal, in the assay on DLD-1 colon, in the assay on DMS 114 small cell lung, in the assay with DMS 273 small cell lung, with HCT-15 colon and in the assay on KM20L2 colon was above 100 µM throughout. Besides, the TGI in the assay with LXFL 529 NSCLC was above 100 µM; with M14 melanoma, above 100 µM; in the assay with M19-MEL melanoma, above 100 µM; in the assay with NCI-H522 lung, 83.7 µM; with RXF-631 renal, above 100 µM; with SK-MEL-5 melanoma, above 100 µM. The TGI with SNB-78 CNS and in the assay with XF 498 CNS was above 100 µM in each case.

For `CS/C(C)=N/OC(=O)NCCCCNc1ccc(N=[N+]=[N-])cc1`, the TGI in the assay on CAKI-1 renal is above 100 µM; in the assay with DLD-1 colon, above 100 µM; in the assay with DMS 114 small cell lung, 43.2 µM; in the assay with HCT-15 colon it was above 100 µM; in the assay on HOP-18 NSCLC, above 100 µM; in the assay with KM20L2 colon, above 100 µM. For the same compound, the TGI was above 100 µM in the assay with LXFL 529 NSCLC; above 100 µM in the assay with M14 melanoma; above 100 µM in the assay with M19-MEL melanoma; 23.7 µM in the assay on NCI-H522 lung; 31.4 µM with RXF-631 renal; 38.6 µM with SK-MEL-5 melanoma. Besides, the TGI in the assay with SNB-78 CNS is above 100 µM; in the assay on XF 498 CNS, 52 µM.

Turning to `CCN(CC)CC(C(=O)Nc1c(C)cccc1C)/C(C)=N\NC(=O)c1ccncc1` (configuration not stated), the TGI with CAKI-1 renal, in the assay with DLD-1 colon, in the assay on DMS 114 small cell lung, with DMS 273 small cell lung, with HCT-15 colon and with HOP-18 NSCLC was above 100 µM in each case. Besides, the TGI with LXFL 529 NSCLC, in the assay on M14 melanoma, in the assay on M19-MEL melanoma, in the assay with NCI-H522 lung, with RXF-631 renal and in the assay with SK-MEL-5 melanoma was above 100 µM in each case. The TGI in the assay on SNB-78 CNS and with XF 498 CNS was above 100 µM throughout.

As to `c1ccc(C2OCCO2)c(OCCOc2cc(OCCOc3ccccc3C3OCCO3)c(OCCOc3ccccc3C3OCCO3)cc2OCCOc2ccccc2C2OCCO2)c1`, the TGI in the assay on CAKI-1 renal is above 100 µM; in the assay on DLD-1 colon, above 100 µM; with DMS 114 small cell lung it was 29.9 µM; in the assay on DMS 273 small cell lung, 50.9 µM; with HCT-15 colon, above 100 µM; in the assay with HOP-18 NSCLC, above 100 µM. Moreover, the TGI was above 100 µM in the assay on KM20L2 colon; above 100 µM in the assay with LXFL 529 NSCLC; above 100 µM in the assay on M14 melanoma; above 100 µM in the assay with M19-MEL melanoma; above 100 µM with SK-MEL-5 melanoma; 28 µM in the assay with SNB-78 CNS.

Consider `C=C=C(Sc1ccccc1)C(C)(C)OC(C)=O`, for which the TGI in the assay with CAKI-1 renal came to 90.2 µM; in the assay with DLD-1 colon it was 31.5 µM; with HCT-15 colon, 46.9 µM; in the assay on HOP-18 NSCLC, 38.5 µM; in the assay on KM20L2 colon it was 58.7 µM; with LXFL 529 NSCLC, 38.3 µM. Besides, the TGI with M14 melanoma stood at 32.4 µM; in the assay with M19-MEL melanoma it was 30.6 µM; in the assay on NCI-H522 lung it was 29.6 µM; in the assay on SK-MEL-5 melanoma, 29.3 µM; with SNB-78 CNS it was 91.4 µM.

For `COc1ccc(-c2cc(=O)c3cc4c(cc3[nH]2)OCO4)cc1`, the TGI in the assay on DLD-1 colon, in the assay on DMS 114 small cell lung, in the assay with DMS 273 small cell lung, with HCT-15 colon, with KM20L2 colon and in the assay on LXFL 529 NSCLC was above 100 µM each time. Also, the TGI in the assay on M14 melanoma, in the assay on M19-MEL melanoma, with SK-MEL-5 melanoma and in the assay with XF 498 CNS was above 100 µM in each case.

As for `C=CCNC(=O)NCCCC(NC(C)=O)C(=O)NCc1ccccc1` (configuration not stated), the TGI in the assay on CAKI-1 renal, with DMS 273 small cell lung, in the assay on HCT-15 colon, in the assay on HOP-18 NSCLC, in the assay on KM20L2 colon and with LXFL 529 NSCLC was above 100 µM throughout. Besides, the TGI in the assay on M14 melanoma, in the assay on M19-MEL melanoma, in the assay on NCI-H522 lung, with RXF-631 renal, with SK-MEL-5 melanoma and in the assay with XF 498 CNS was above 100 µM throughout.
